Entries after “also recorded” stand apart in the source; their conditions may differ. Read-outs that look alike come from different tables or passages of the source.
Legend:
[1] = test system: B16 amelanotic melanoma cells; details: cited from earlier work
[2] = test system: B16 amelanotic melanoma cells; experiment: PGI2 reduction of pulmonary tumor colonization by tail vein injected B16 amelanotic melanoma cells (Honn et al.); assay type: in vivo, mouse; details: PGI2 (Honn) compared with forskolin (applicant)
Description: Since tumor cell-platelet interactions play a role in tumor metastasis, several laboratories have examined anticoagulants and anti-aggregating agents, such as heparin, warfarin (Hagmar and Norrby, Vol. 5 Int. J. Cancer, pp. 72-84, [1970]; Lione and Bosmann, Vol. 2 Cell Biol. Int. Res., pp. 81-86 [1972]; Hoover and Ketcham, Vol. 35 Cancer, pp. 5-14 [1975]); aspirin (Gasic et al., Lancet II, pp. 932-933 [1972]; Wood and Hilgard, Lancet II, pp. 1416-1416 [1972]; Hilgard et al., Vol. 86 Z. Krebsforsch., pp. 243-250 [1976]) and dipyridamole (Hilgard in Interaction of Platelets and Tumor Cells, pp. 143-158, Jameson [ed.] [1982]; Ambrus et al. in Platelets: A Multidisciplinary Approach, pp. 467-48, de Gaetano [ed.] [1982]) to reduce the incidence of tumor metastasis without treating the tumor per se in experimental animal models. However, the results of many of these studies were inconclusive.

platelet aggregation [3] = experiment: inhibition of platelet aggregation in vitro; assay type: cell-based, human; details: molar basis, PGI2 compared to forskolin
mice [4] = experiment: overt toxicity observation in mice after i.p. administration; assay type: in vivo, mouse (C57BL/6); details: 82 micrograms/mouse
Description: Washed B16-F10 tumor cells (2 or 3×10^5) in 100 microliters Hanks balanced salts solution were injected from the tail vein 60 min (Exp. 1) or 30 min (Exp. 2, 3) after i.p. injection of 200 microliters DMSO (20 percent in saline) in control group; or forskolin (5 mM) prepared in DMSO (100 percent) and diluted to 1 mM with saline just before injection. The mice were sacrificed after 9 days (Exp. 1) or 14 days (Exp. 2, 3) and the lungs removed for examination. The tumor foci were counted with the help of a dissecting microscope. […] FIG. 2 presents typical specimens of lungs from untreated and forskolin-treated mice of experiments 2 and 3.

mice [5] = details: cited from earlier work
B16-F10 melanoma cells = experiment: pulmonary tumor colonization after tail vein injection of B16-F10 cells; assay type: in vivo, mouse (C57BL/6)
Description: Washed B16-F10 tumor cells (2 or 3×10^5) in 100 microliters Hanks balanced salts solution were injected from the tail vein 60 min (Exp. 1) or 30 min (Exp. 2, 3) after i.p. injection of 200 microliters DMSO (20 percent in saline) in control group; or forskolin (5 mM) prepared in DMSO (100 percent) and diluted to 1 mM with saline just before injection. The mice were sacrificed after 9 days (Exp. 1) or 14 days (Exp. 2, 3) and the lungs removed for examination. The tumor foci were counted with the help of a dissecting microscope.
The in vivo experimental procedure of Example II above was also repeated using a combination of forskolin and oxagrelate.

platelet aggregation [6] = details: induced by a wide variety of aggregation stimulators; cited from earlier work
[7] = test system: membrane adenylate cyclase; details: human platelets, via stimulation of membrane adenylate cyclase; cited from earlier work
[8] = test system: human platelet aggregation induced by B16-F10 melanoma cells; experiment: B16-F10 melanoma cell-induced human platelet aggregation in vitro (light transmission in platelet-rich plasma); assay type: cell-based
Description: A mouse melanoma subline, B16-F10, (highly metastatic to the lungs) was obtained from EG & G Mason Research Institute, Worcester, MA, and adapted to growth in cell culture. The cultured cells were harvested by 1 min of trypsinization (0.25% trypsin-0.1% EDTA) or with the use of a rubber policeman, washed gently three times with Hank's balanced salts solution (HBBS, free of Ca^++ and Mg^++). […] Freshly drawn whole blood from healthy adult human donors was anticoagulated with heparin (5 units/ml). […] Platelet-rich plasma (PRP) was separated by centrifugation of the whole blood and platelet aggregation was measured in PRP by recording the increase in light transmission after the addition of the tumor cells.
Washed B16-F10 cell suspensions (2×10^7 /ml) were treated with potato apyrase (1 unit/ml) for about 5 min to degrade exogenous adenine nucleotides. Fifty microliters of the cell suspension was then added to the platelet-rich plasma after an incubation of 5 min with (A) 5 microliters DMSO (10% in saline) (Control) or (B) 5 microliters forskolin (200 micro Molars in DMSO 10% in saline). Final concentration of forskolin in PRP (500 microliters) was 2 micromolars.
The in vitro experimental procedure of Example I above was repeated using a combination of forskolin and oxagrelate. In this example the cell suspension was added to platelet-rich plasma incubated with a mixture of forskolin and oxagrelate.

Row | SMILES | decrease in pulmonary tumor foci ([1]; PGI2 50-200 micrograms/mouse (Honn)) | pulmonary tumor colonization ([1]; PGI2, i.v. injection (Honn et al. 1981)) | potency as inhibitor of pulmonary tumor metastasis, PGI2 versus forskolin [2] | potency in inhibiting platelet aggregation in vitro relative to forskolin (platelet aggregation [3]) | overt signs of toxicity (mice [4]) | LD 50 (mice [5]; i.p.) [mg/kg] | LD 50 (mice [5]; per OS) | Median number of pulmonary tumor foci (B16-F10 melanoma cells; Experiment 1, 2×10^5 cells/mouse, i.p. 60 min before, 9 days, control median 189) | Median number of pulmonary tumor foci (B16-F10 melanoma cells; Experiment 2, 3×10^5 cells/mouse, i.p. 30 min before, 14 days, control median 210) | Median number of pulmonary tumor foci (B16-F10 melanoma cells; Experiment 3, 3×10^5 cells/mouse, i.p. 30 min before, 14 days, control median >600 (estimated)) | No. of pulmonary tumor foci (per mouse) (B16-F10 melanoma cells; Experiment 3, 3×10^5 cells/mouse, i.p. 30 min before, 14 days, mice about 5 weeks old, control >600 (estimated)) | appearance of tumor foci (dissecting microscope) (B16-F10 melanoma cells; experiments 2 and 3, compared with untreated mice) | direct effect on melanoma cells (B16-F10 melanoma cells; forskolin i.p. prior to tail vein injection of cells) | inhibition of human platelet aggregation (platelet aggregation [6]) | increase of intracellular concentration of cyclic AMP [7] | inhibition at 0.4 µM ([8]; Homo sapiens, B16-F10, forskolin 0.4 micromolar alone, read-out: inhibition of tumor cell-induced platelet aggregation) [%] | melanoma cell-induced human platelet aggregation, inhibition ([8]; forskolin 2 micromolar, 5 min preincubation of PRP, B16-F10 2×10^6/ml) | in vitro inhibitory effect in combination with 2-fluoroadenosine ([8]; forskolin combined with 2-fluoroadenosine (F-Ado)) | in vitro inhibitory effect in combination with prostaglandin E ([8]; forskolin combined with prostaglandin E) | inhibition at 20 µM ([8]; Homo sapiens, B16-F10, oxagrelate 20 micromolar alone, read-out: inhibition of tumor cell-induced platelet aggregation) [%]
1 | CCCCC[C@H](O)/C=C/[C@@H]1[C@H]2C/C(=C/CCCC(=O)O)O[C@H]2C[C@H]1O [PGI2, prostacyclin] | greater than 50% | reduces pulmonary tumor colonization | similar | several hundred-fold more potent |  |  |  |  |  |  |  |  |  |  |  |  |  |  |  | 
2 | C=C[C@@]1(C)CC(=O)[C@]2(O)[C@@]3(C)[C@@H](O)CCC(C)(C)[C@@H]3[C@H](O)[C@H](OC(C)=O)[C@@]2(C)O1 [forskolin, 7 beta-acetoxy-8,13-epoxy-1 alpha,6 beta,9 alpha trihydroxy-labd-14-en-11-one] |  |  | similar |  | No overt signs of toxicity | 105 | 3,100 mg/kg | 3.1 | 1 | 149.5 | 219,250,281 | smaller and more superficial | without effecting the melanoma cells directly | blocks human platelet aggregation | several-fold | 20 | strongly inhibits; also recorded: strongly blocked | potentiated | potentiated | 
3 | CCOC(=O)c1c(C)cc2c(CO)nnc(O)c2c1C [oxagrelate] |  |  |  |  |  |  |  |  |  |  |  |  |  |  |  |  |  |  |  | 20
